Laboratory results reported in US20120309087A1, “CANCER THERAPY” (University Court of The University of Dundee, priority 2006, published 2012).

Tests used:
MCF7 cells = assay: cells; type: cell-based; conditions: for synergy with Bleomycin (cell killing, isobologram): 72 hrs; for IC50: Homo sapiens, single agent
[1] = system: AKR1C and NQO1 protein in MCF7 cells; assay: AKR1C and NQO1 protein in MCF7 cells (Western blots); type: cell-based, human; conditions: 24 hrs; for sulforaphane-induced AKR1C protein: sulforaphane 5 μM + retinoid 0.5 μM
Experimental: Method: AREc32 cells were seeded out in 96 well plates and treated with DMSO (control), tBHQ (50 μM), tBHQ+BTB09463 (5 μM) or tBHQ+Retinoic acid (1 μM). After 24 hours incubation, cells were washed and lysed before measuring luciferase activity. BTB09463 is 1-{4-[(3,4-dichlorobenzyl)oxy]phenyl}ethan-1-one. […] Method: AREc32 cells were seeded out in 96 well plates and dosed with BTB09463 (2.5, 5 or 10 μM) for 0, 24 or 48 hrs before treatment with tBHQ (50 μM). 24 hours after the addition of tBHQ, cells were washed and lysed before measuring luciferase activity. […] Method: ARE c32 cells were seeded out in 96 well plates and treated with DMSO (control), tBHQ (50 μM), tBHQ+retinoid (0.25, 0.5 and 1 μM). After 24 hours incubation, cells were washed and lysed before measuring luciferase activity. […] See FIG. 16 Method: A. Caco-2 cells were treated with the known ARE-gene inducer sulforaphane (5 μM), either alone or concomitantly with BTB09463 (5 μM) or Retinoic acid (1 μM). After 24 hrs, cell lysates were prepared and Western blotting performed to measure the levels of AKR1C protein. B. MCF7 cells were treated with sulforaphane (5 μM), either alone or concomitantly with BTB09463 (5 μM). After 24 hrs, cell lysates were prepared and Western blots performed to detect the levels of AKR1C and NQO1; GAPDH was used as a loading control in MCF7 cells. […] Method: Caco-2 cells were treated with DMSO (control), BTB09463 (5 μM), sulforaphane (5 μM) or a combination of sulforaphane plus BTB09463. After 24 hrs treatment, cells were harvested and RNA isolated. cDNA for each sample was generated by reverse transcription and subsequently used in real time PCR analysis of gene transcription (TaqMan analysis) for the ARE-driven genes AKR1C1 and NQO1. Data was normalised to the internal control 18S RNA and the relative levels of AKR1C1 and NQO1 calculated using the comparative CT method. […] Method: MCF7 cells were treated with the known ARE-gene inducer sulforaphane (5 μM), either alone or with various retinoids (0.5 μM). After 24 hrs, cell lysates were prepared and Western blots were performed to detect the levels of AKR1C protein present. […] See FIG. 19 Method: ARE reporter cell line AREc23 was seeded into 96 well plates and treated with a previously determined non-toxic concentration of cytotoxic drug. After 24 hours incubation, cells were washed and lysed before measuring luciferase activity. […] See FIG. 20a Method: ARE reporter cell line AREc23 was seeded into 96 well plates and treated with DMSO (control), Carmustine (100 μM), Carmustine+BTB09463 (5 μM) or Carmustine+Retinoic acid (5 μM) After 24 hours incubation, cells were washed and lysed before measuring luciferase activity. […] After 24 hours incubation, cells were washed and lysed before measuring luciferase activity. B. Modified repeat of experiment A, with cells being pretreated with L-buthionine-(SR)-sulfoximine (BSO), an inhibitor of enzymes in the glutathione synthesis pathway. After 24 hours incubation, cells were washed and lysed before measuring luciferase activity. […] Method: Caco-2 cells were treated for 24 hrs with DMSO (control), Carmustine (100 μM), Carmustine+BTB09463 (5 μM). After 24 hrs, cell lysates were prepared and Western blots to detect the levels of AKR1C. […] Method: MCF7 cells were treated for 24 hrs with DMSO (control; Lane 1), Sulforaphane (5 μM) (Lane 2), Carmustine (100 μM) (Lane 3), Carmustine+BTB09463 (5 μM) (Lane 5). (Lane 4 represents experimental conditions irrelevant to the application). After 24 hrs, cell lysates were prepared and Western blots to detect the levels of Nrf2, NQO1 and AKR1C proteins.

A549 cells = assay: Cytotoxicity in A549 cells (ATP levels, 72 h); type: cell-based, human; conditions: Homo sapiens, single agent
[2] = system: AKR1C protein in Caco-2 cells; assay: AKR1C protein in Caco-2 cells (Western blotting); type: cell-based, human; conditions: 24 hrs
Experimental: (§1) Method: AREc32 cells were seeded out in 96 well plates and treated with DMSO (control), tBHQ (50 μM), tBHQ+BTB09463 (5 μM) or tBHQ+Retinoic acid (1 μM). After 24 hours incubation, cells were washed and lysed before measuring luciferase activity. BTB09463 is 1-{4-[(3,4-dichlorobenzyl)oxy]phenyl}ethan-1-one. […] Method: AREc32 cells were seeded out in 96 well plates and dosed with BTB09463 (2.5, 5 or 10 μM) for 0, 24 or 48 hrs before treatment with tBHQ (50 μM). 24 hours after the addition of tBHQ, cells were washed and lysed before measuring luciferase activity. […] Method: ARE c32 cells were seeded out in 96 well plates and treated with DMSO (control), tBHQ (50 μM), tBHQ+retinoid (0.25, 0.5 and 1 μM). After 24 hours incubation, cells were washed and lysed before measuring luciferase activity. […] See FIG. 16 Method: A. Caco-2 cells were treated with the known ARE-gene inducer sulforaphane (5 μM), either alone or concomitantly with BTB09463 (5 μM) or Retinoic acid (1 μM). After 24 hrs, cell lysates were prepared and Western blotting performed to measure the levels of AKR1C protein. B. MCF7 cells were treated with sulforaphane (5 μM), either alone or concomitantly with BTB09463 (5 μM). After 24 hrs, cell lysates were prepared and Western blots performed to detect the levels of AKR1C and NQO1; GAPDH was used as a loading control in MCF7 cells. […] Method: Caco-2 cells were treated with DMSO (control), BTB09463 (5 μM), sulforaphane (5 μM) or a combination of sulforaphane plus BTB09463. After 24 hrs treatment, cells were harvested and RNA isolated. cDNA for each sample was generated by reverse transcription and subsequently used in real time PCR analysis of gene transcription (TaqMan analysis) for the ARE-driven genes AKR1C1 and NQO1. Data was normalised to the internal control 18S RNA and the relative levels of AKR1C1 and NQO1 calculated using the comparative CT method. […] Method: MCF7 cells were treated with the known ARE-gene inducer sulforaphane (5 μM), either alone or with various retinoids (0.5 μM). After 24 hrs, cell lysates were prepared and Western blots were performed to detect the levels of AKR1C protein present. […] See FIG. 19 Method: ARE reporter cell line AREc23 was seeded into 96 well plates and treated with a previously determined non-toxic concentration of cytotoxic drug. After 24 hours incubation, cells were washed and lysed before measuring luciferase activity. […] See FIG. 20a Method: ARE reporter cell line AREc23 was seeded into 96 well plates and treated with DMSO (control), Carmustine (100 μM), Carmustine+BTB09463 (5 μM) or Carmustine+Retinoic acid (5 μM) After 24 hours incubation, cells were washed and lysed before measuring luciferase activity. […] After 24 hours incubation, cells were washed and lysed before measuring luciferase activity. […]

[3] = system: ARE-driven luciferase activity in AREc32 cells; assay: Induction of ARE-driven luciferase activity in stable AREc32 reporter cells; type: cell-based, human
[4] = system: AKR1C mRNA in AREc32 cells; assay: AKR1C mRNA in AREc32 cells (TaqMan); conditions: without BSO; 100 μM BCNU, 24 h
[5] = system: ARE-driven luciferase activity in AREc32 cells; assay: Antagonism of induced ARE-driven luciferase activity in AREc32 cells; type: cell-based, human
[6] = system: AKR1C protein in LS174 cells; assay: AKR1C protein in LS174 cells; type: cell-based, human; conditions: data not shown
[7] = system: AKR1C1, NQO1, GCLC, GCLM mRNA in A549 cells; assay: Constitutive mRNA of ARE-driven genes in A549 cells (Taqman); type: cell-based, human; conditions: 24 hrs; for constitutive expression of AKR1C1 mRNA: BTB09463 1, 5, 20, 40 μmol/l or retinoids 0.050, 0.20, 0.50, 2.0 μmol/l
[8] = system: AKR1C1 and NQO1 mRNA in Caco-2 cells; assay: AKR1C1 and NQO1 mRNA in Caco-2 cells (TaqMan); type: cell-based, human; conditions: sulforaphane 5 μM + BTB09463 5 μM, 24 hrs
Experimental: as §1

Fas-induced killing = conditions: WO 01/57189; cited from earlier work
[9] = Carmustine 100 μM + BTB09463 5 μM

SMILES: COc1cc(C)c(/C=C/C(C)=C/C=C/C(C)=C/C(=O)O)c(C)c1C [Acitretin]
- synergy with Bleomycin (cell killing, isobologram) (MCF7 cells): very potent, synergistic increase in cell killing
- sulforaphane-induced AKR1C protein [1]: reduced the expression of sulforaphane-induced AKR1C

SMILES: O=NN(CCCl)C(=O)NCCCl [BCNU, carmustine]
- IC50 (MCF7 cells): 291 µM
- IC50 (A549 cells): > 1500 µM
- AKR1C protein expression ([2]; Carmustine 100 μM): massive induction
- effect on luciferase activity in AREc32 cells (in words) ([3]; 24 h, sub-lethal doses, no BSO): stronger inducing agent
- Type of modulation ([3]; AREc32, 24 h, grouping of drugs by effect on luciferase activity): Weak inducers
- induction of ARE-driven luciferase activity ([3]; previously determined non-toxic concentration, 24 hours): 4.5 fold
- NQO1 and AKR1C protein expression ([1]; Carmustine 100 μM): caused over-expression of NQO1 and AKR1C protein
- induction of AKR1C mRNA [4]: 3 fold

SMILES: CC(=O)c1ccc(OCc2ccc(Cl)c(Cl)c2)cc1 [BTB09463, 1-{4-[(3,4-dichlorobenzyl)oxy]phenyl}ethan-1-one]
- IC50 (MCF7 cells): 28 µM
- suppression of tBHQ induction of luciferase ([5]; 50 μM tBHQ + 5 μM BTB09463, 24 h): approximately 65%
- suppression of tBHQ-mediated induction of luciferase expression, by dosing regimen ([5]; BTB09463 2.5, 5 or 10 μM for 0, 24 or 48 hrs before 50 μM tBHQ): identical under each dosing regimen
- carmustine-mediated induction of luciferase activity ([5]; Carmustine 100 μM + BTB09463 5 μM or Retinoic acid 5 μM, 24 hours): completely suppress
- carmustine induction of AKR1C protein [6]: reproduced in LS174 cells
- IC50 (A549 cells): 52 µM
- carmustine induction of AKR1C protein [2, 9]: attenuated
- sulforaphane induction of AKR1C protein ([2]; sulforaphane 5 μM, BTB09463 5 μM or Retinoic acid 1 μM): dramatically reduced
- constitutive expression of AKR1C1 mRNA [7]: inhibited the constitutive expression of AKR1C1 in a concentration-dependent manner
- constitutive mRNA levels of NQO1, GCLC and GCLM ([7]; BTB09463 1-40 μmol/l or retinoic acid 0.050-2.0 μmol/l): repressed the constitutive mRNA levels of NQO1, GCLC and GCLM in a concentration-dependent manner
- carmustine over expression of AKR1C and NQO1 protein [1, 9]: attenuated
- sulforaphane-driven induction of NQO1 and AKR1C protein ([1]; sulforaphane 5 μM + BTB09463 5 μM): potently inhibited
- reduction of sulforaphane-induced AKR1C1 mRNA [8]: 50%
- sulforaphane-induced NQO1 mRNA expression [8]: reduced to basal levels

SMILES: O=c1oc2ccccc2c(O)c1Cc1c(O)c2ccccc2oc1=O [Dirumarol]
- protection conferred by Nrf2 against Fas-induced killing (Fas-induced killing): antagonise protection conferred by Nrf2 against Fas-induced killing

SMILES: CC(=O)OC/C=C(C)/C=C/C=C(C)/C=C/C1=C(C)CCCC1(C)C [Retinyl acetate]
- synergy with Bleomycin (cell killing, isobologram) (MCF7 cells): very potent, synergistic increase in cell killing
- constitutive expression of AKR1C1 mRNA [7]: inhibited the constitutive expression of AKR1C1 in a concentration-dependent manner
- sulforaphane-induced AKR1C protein [1]: reduced the expression of sulforaphane-induced AKR1C
